Source: ChEMBL document CHEMBL1909046, “DrugMatrix in vitro pharmacology data”

Legend:
Substance-K receptor = target: T1, Substance-K receptor (Homo sapiens, UniProt P21452); assay type: cell membranes, CHO, Membrane; details: cho; further: in other assays of this panel Not Active means under 50% inhibition at 10 µM
T1 sequence (P21452 whole entry): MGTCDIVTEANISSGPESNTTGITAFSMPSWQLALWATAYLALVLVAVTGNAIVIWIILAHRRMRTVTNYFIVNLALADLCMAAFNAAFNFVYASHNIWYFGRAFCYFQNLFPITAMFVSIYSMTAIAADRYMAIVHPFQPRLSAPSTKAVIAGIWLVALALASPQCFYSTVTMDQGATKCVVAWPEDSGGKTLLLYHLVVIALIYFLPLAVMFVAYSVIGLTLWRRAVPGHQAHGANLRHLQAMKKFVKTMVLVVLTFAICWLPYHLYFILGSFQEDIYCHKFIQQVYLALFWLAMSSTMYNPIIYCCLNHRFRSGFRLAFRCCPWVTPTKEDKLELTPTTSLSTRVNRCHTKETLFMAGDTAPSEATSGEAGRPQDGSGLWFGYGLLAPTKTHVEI

Cannabinoid receptor 1 = Cannabinoid receptor 1 (Homo sapiens, UniProt P21554); assay type: cell membranes, Chem-1, Membrane; details: chem-1; further: in other assays of this panel Not Active means under 50% inhibition at 10 µM
Sequence of Cannabinoid receptor 1 (P21554 whole entry): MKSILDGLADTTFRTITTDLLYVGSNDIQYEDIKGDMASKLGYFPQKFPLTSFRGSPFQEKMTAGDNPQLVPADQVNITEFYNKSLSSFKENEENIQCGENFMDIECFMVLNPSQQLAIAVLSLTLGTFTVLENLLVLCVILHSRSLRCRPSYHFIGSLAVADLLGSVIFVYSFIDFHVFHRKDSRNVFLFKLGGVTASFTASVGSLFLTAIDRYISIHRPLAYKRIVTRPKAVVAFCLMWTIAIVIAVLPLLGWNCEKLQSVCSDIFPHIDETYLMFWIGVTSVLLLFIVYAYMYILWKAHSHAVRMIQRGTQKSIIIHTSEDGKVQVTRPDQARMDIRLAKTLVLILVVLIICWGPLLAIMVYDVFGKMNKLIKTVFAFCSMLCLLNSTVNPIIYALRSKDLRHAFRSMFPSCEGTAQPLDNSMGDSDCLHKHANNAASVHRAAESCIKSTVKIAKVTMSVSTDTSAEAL

[1] = DRUGMATRIX: Calcium Channel Type L, Dihydropyridine radioligand binding (ligand: [3H] Nitrendipine); assay type: cell membranes, Rattus norvegicus, Wistar, Cerebral cortex, Membrane; details: Not Active = under 50% inhibition at 10 µM
[2] = target: T2, Amine oxidase [flavin-containing] A (Homo sapiens, UniProt P21397); experiment: DRUGMATRIX: Monoamine Oxidase MAO-A enzyme inhibition (substrate: Kynuramine); set-up: species or system BTI-TN-5B1-4; details: bti-tn-5b1-4; Not Active = under 50% inhibition at 10 µM
T2 sequence (P21397 whole entry): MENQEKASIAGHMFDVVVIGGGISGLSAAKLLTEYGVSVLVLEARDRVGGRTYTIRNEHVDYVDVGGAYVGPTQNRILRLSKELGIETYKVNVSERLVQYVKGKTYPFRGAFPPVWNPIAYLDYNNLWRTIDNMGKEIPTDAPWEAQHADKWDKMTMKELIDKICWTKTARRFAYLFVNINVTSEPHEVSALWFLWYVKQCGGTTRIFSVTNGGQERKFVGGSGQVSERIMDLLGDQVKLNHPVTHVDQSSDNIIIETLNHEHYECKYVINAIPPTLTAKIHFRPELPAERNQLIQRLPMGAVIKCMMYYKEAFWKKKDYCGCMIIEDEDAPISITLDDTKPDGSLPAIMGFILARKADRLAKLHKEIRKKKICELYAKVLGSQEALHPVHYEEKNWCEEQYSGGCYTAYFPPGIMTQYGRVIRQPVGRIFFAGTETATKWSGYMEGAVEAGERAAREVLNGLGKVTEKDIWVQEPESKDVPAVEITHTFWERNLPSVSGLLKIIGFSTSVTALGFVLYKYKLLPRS

[3] = DRUGMATRIX: Phosphodiesterase PDE4 enzyme inhibition (substrate: [3H]cAMP + cAMP); details: u-937; Not Active = under 50% inhibition at 10 µM
Cytochrome P450 2E1 = Cytochrome P450 2E1 (Homo sapiens, UniProt P05181); details: bti-tn-5b1-4; further: in other assays of this panel Not Active means under 50% inhibition at 10 µM
Sequence of Cytochrome P450 2E1 (P05181 whole entry): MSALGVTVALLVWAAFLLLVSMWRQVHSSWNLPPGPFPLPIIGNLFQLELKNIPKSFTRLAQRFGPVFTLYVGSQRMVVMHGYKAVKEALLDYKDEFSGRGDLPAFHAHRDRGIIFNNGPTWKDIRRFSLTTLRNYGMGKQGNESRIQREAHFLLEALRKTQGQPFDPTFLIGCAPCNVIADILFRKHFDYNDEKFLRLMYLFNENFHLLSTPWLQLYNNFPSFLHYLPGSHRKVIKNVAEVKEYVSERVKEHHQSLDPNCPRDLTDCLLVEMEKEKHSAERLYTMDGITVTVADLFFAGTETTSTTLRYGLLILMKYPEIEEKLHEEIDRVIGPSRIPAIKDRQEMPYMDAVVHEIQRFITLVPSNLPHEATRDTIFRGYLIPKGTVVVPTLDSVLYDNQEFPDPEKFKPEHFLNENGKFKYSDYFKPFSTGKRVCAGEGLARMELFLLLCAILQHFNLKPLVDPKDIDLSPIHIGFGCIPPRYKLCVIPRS

CC(C)NNC(=O)c1ccncc1 [IPRONIAZID]
Not Active: IC50 (Substance-K receptor) | IC50 (Cannabinoid receptor 1) | IC50 [1] | Ki [1] | IC50 [2] | IC50 [3] | Ki [3] | IC50 (Cytochrome P450 2E1) | Ki (Cytochrome P450 2E1)

CC(C(=O)O)c1cccc(Oc2ccccc2)c1 (centres undefined) [FENOPROFEN]
Not Active: IC50 (Substance-K receptor) | IC50 (Cannabinoid receptor 1) | IC50 [1] | Ki [1] | IC50 [2] | IC50 [3] | Ki [3] | IC50 (Cytochrome P450 2E1) | Ki (Cytochrome P450 2E1)

O=C(O)CCNC(=O)c1ccccc1 [BETAMIPRON]
Not Active: IC50 (Substance-K receptor) | IC50 (Cannabinoid receptor 1) | IC50 [1] | Ki [1] | IC50 [2] | IC50 [3] | Ki [3] | IC50 (Cytochrome P450 2E1) | Ki (Cytochrome P450 2E1)

CN1[C@@H]2CC[C@H]1C[C@@H](OC(=O)C(CO)c1ccccc1)C2 (some centres undefined) [ATROPINE]
Not Active: IC50 (Substance-K receptor) | IC50 (Cannabinoid receptor 1) | IC50 [1] | Ki [1] | IC50 [2] | IC50 [3] | Ki [3] | IC50 (Cytochrome P450 2E1) | Ki (Cytochrome P450 2E1)

Oc1cccc(O)c1O [PYROGALLOL]
Not Active: IC50 (Substance-K receptor) | IC50 (Cannabinoid receptor 1) | IC50 [1] | Ki [1] | IC50 [2] | IC50 [3] | Ki [3] | IC50 (Cytochrome P450 2E1) | Ki (Cytochrome P450 2E1)

O=C/C=C/c1ccccc1
Not Active: IC50 (Substance-K receptor) | IC50 (Cannabinoid receptor 1) | IC50 [1] | Ki [1] | IC50 [2] | IC50 [3] | Ki [3] | IC50 (Cytochrome P450 2E1) | Ki (Cytochrome P450 2E1)

CN/C(=N\CCSCc1nc[nH]c1C)NC#N [CIMETIDINE]
Not Active: IC50 (Substance-K receptor) | IC50 (Cannabinoid receptor 1) | IC50 [1] | Ki [1] | IC50 [2] | IC50 [3] | Ki [3] | IC50 (Cytochrome P450 2E1) | Ki (Cytochrome P450 2E1)

C[n+]1ccc(-c2cc[n+](C)cc2)cc1.[Cl-].[Cl-] [PARAQUAT DICHLORIDE]
Not Active: IC50 (Substance-K receptor) | IC50 (Cannabinoid receptor 1) | IC50 [1] | Ki [1] | IC50 [2] | IC50 [3] | Ki [3] | IC50 (Cytochrome P450 2E1) | Ki (Cytochrome P450 2E1)

CCCN(CCC)S(=O)(=O)c1ccc(C(=O)O)cc1 [PROBENECID]
Not Active: IC50 (Substance-K receptor) | IC50 (Cannabinoid receptor 1) | IC50 [1] | Ki [1] | IC50 [2] | IC50 [3] | Ki [3] | IC50 (Cytochrome P450 2E1) | Ki (Cytochrome P450 2E1)

C#CC1(O)CC[C@H]2[C@@H]3CCC4=CC(=O)CC[C@@H]4[C@H]3CC[C@@]21CC (some centres undefined) [NORGESTREL]
Not Active: IC50 (Substance-K receptor) | IC50 (Cannabinoid receptor 1) | IC50 [1] | Ki [1] | IC50 [2] | IC50 [3] | Ki [3] | IC50 (Cytochrome P450 2E1) | Ki (Cytochrome P450 2E1)

CC[C@H]1CN2CCc3cc(OC)c(OC)cc3[C@@H]2C[C@@H]1C[C@H]1NCCc2cc(OC)c(OC)cc21 [EMETINE]
Not Active: IC50 (Substance-K receptor) | IC50 (Cannabinoid receptor 1) | IC50 [1] | Ki [1] | IC50 [2] | IC50 [3] | Ki [3] | IC50 (Cytochrome P450 2E1) | Ki (Cytochrome P450 2E1)
